Experimental data published in patent publication US20100168040A1, “MUSCLE FATIGUE REMEDY” (Kyowa Hakko Kogyo Co., Ltd., priority 2006, published 2010).
Residues, ends and D or L forms follow the SMILES beside them.

Key:
muscle fatigue = assay: Test Example 1: muscle fatigue status of healthy males consuming alanylglutamine continuously for 1 month; type: in vivo, human; conditions: for Muscle fatigue status: 1 month
Method: Twenty-six healthy males ages 21 to 60 consumed alanylglutamine (manufactured by Kyowa Hakko Co., Ltd.) continuously for 1 month, and the muscle fatigue status of the subjects was evaluated.

[1] = alanylglutamine compared to glutamine; cited from earlier work
[2] = cited from earlier work
[3] = alanylglutamine compared to glutamine; cited from earlier work; remark: listed apart in the source

## C[C@H](N)C(=O)N[C@@H](CCC(N)=O)C(=O)O [alanylglutamine] (H-Ala-Gln-OH)
Muscle fatigue; of the 15 listed subjects (26 in all), 1 month consumption
  subjects with alleviation of muscle pain after exercise: 10 subjects
Muscle fatigue; of the 26 subjects, 1 month consumption
  subjects in whom relief of muscle fatigue was observed: 15 subjects
Muscle fatigue; subject 21 to 25 years, before going to bed, 2 g/administration
  Muscle fatigue status: Disappearance of muscle pain
Muscle fatigue; subject 26 to 30 years, after exercising, 1 g/administration
  Muscle fatigue status: Substantial relief of muscle pain
Muscle fatigue; subject 26 to 30 years, before and after exercise, approximately 1 g/administration
  Muscle fatigue status: Reduction of muscle fatigue
Muscle fatigue; subject 31 to 35 years, before exercise, 8 g/administration
  Muscle fatigue status: Feeling of damage relief
Muscle fatigue; subject 31 to 35 years, morning and before going to bed, 0.6 g/administration
  Muscle fatigue status: Reduction of muscle pain after
Muscle fatigue; subject 31 to 35 years, morning, 0.5 g/administration
  Muscle fatigue status: Lighter muscle pain after
Muscle fatigue; subject 36 to 40 years, morning and evening, 0.5 g/administration
  Muscle fatigue status: Reduction of muscle pain
Muscle fatigue; subject 45 to 50 years, before going to bed, approximately 2.5 g/administration
  Muscle fatigue status: Reduction of stiff shoulders the
Muscle fatigue; subject 46 to 50 years, after meals morning and evening, 1 g/administration
  Muscle fatigue status: Less fatigue and muscle pain
Muscle fatigue; subject 51 to 55 years, before going to bed, approximately 0.5 g/administration
  Muscle fatigue status: Became less prone to fatigue
Muscle fatigue; subject 51 to 55 years, every morning, 1 g/administration
  Muscle fatigue status: Alleviation of muscle pain after
Muscle fatigue; subject 56 to 60 years, morning and evening, 0.5 g/administration
  Muscle fatigue status: Reduction of muscle pain
[1]
  heat stability: superior
[2]
  degradation in the body: immediately degraded into alanine and glutamine
[3]
  solubility in aqueous solutions: superior
